Reference: patent US8741614B2, “Crystal structure of isoglutaminyl cyclase” (Probiodrug AG, priority 2010, dated 2014)

Legend:
human QC = human QC (Homo sapiens, UniProt Q16769); assay: inhibition of human QC in vitro; type: biochemical
mouse QC = mouse QC (Mus musculus, UniProt Q9CYK2); assay: inhibition of mouse QC in vitro; type: biochemical
solubility in water = type: physicochemical

Chain of human QC (Q16769 29-361): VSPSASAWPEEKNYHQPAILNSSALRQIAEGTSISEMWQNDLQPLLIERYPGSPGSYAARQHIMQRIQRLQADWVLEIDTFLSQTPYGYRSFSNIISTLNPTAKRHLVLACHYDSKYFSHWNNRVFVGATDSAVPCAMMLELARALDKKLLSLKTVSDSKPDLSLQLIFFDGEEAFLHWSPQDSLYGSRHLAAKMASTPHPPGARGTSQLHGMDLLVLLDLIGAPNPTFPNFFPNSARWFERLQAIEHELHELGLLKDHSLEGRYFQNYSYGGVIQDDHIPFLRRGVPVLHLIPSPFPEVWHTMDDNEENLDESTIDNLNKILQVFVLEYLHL
Chain of mouse QC (Q9CYK2 36-362): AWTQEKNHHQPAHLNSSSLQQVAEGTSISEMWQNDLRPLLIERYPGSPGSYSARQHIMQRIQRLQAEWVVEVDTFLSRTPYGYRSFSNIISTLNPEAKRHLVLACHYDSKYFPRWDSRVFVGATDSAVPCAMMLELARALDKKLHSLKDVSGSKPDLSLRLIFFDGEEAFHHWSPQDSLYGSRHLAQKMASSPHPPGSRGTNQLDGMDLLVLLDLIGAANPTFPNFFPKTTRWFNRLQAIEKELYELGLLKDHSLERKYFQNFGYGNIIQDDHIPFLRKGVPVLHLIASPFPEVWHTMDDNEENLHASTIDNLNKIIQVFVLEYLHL

COc1ccc(NC(=S)NCCCn2ccnc2)cc1OC [Inhibitor A, 1-(3-(1H-Imidazol-1-yl)propyl)-3-(3,4-dimethoxyphenyl)thiourea]
inhibition of human QC (human QC): inhibits
inhibition of mouse QC (mouse QC): inhibits
solubility in water (solubility in water): soluble in water
